Measured values as given in patent US9249129B2, “Morpholino substituted urea derivatives as mTOR inhibitors” (CELLZOME LIMITED, priority 2010, dated 2016).

Columns and labels:
Assay in all cases: kinobeads assay with mass spectrometry detection of kinases (kinase selectivity profile)
Format in all cases: binding
[1] = biological target: T1, kinases (kinome) (Homo sapiens, UniProt O60885); details: BRD4 (Atypical), IPI00440727
T1 construct: determined in kinobeads assays with mass spectrometry detection of kinases as described previously; endogenous in cells; host or cells: cell lysate
Description: (§1) The protein kinase complement of the human genome (the kinome) was described previously (Manning et al., 2002. Science 298(5600):1912-1934). Sequence accession numbers are defined by the International Protein Index (IPI) (Kersey et al., 2004. Proteomics 4(7):1985-1988).

[2] = biological target: T2, kinases (kinome) (Homo sapiens, UniProt O96013); details: PAK4 (STE), IPI00014068
T2 construct: determined in kinobeads assays with mass spectrometry detection of kinases as described previously; endogenous in cells; host or cells: cell lysate
Description: as §1

[3] = biological target: T3, kinases (kinome) (Homo sapiens, UniProt P25440); details: BRD2 (Atypical), IPI00440502
T3 construct: determined in kinobeads assays with mass spectrometry detection of kinases as described previously; endogenous in cells; host or cells: cell lysate
Description: as §1

[4] = biological target: T4, kinases (kinome) (Homo sapiens, UniProt P27361); details: Erk1 (CMGC), IPI00018195
T4 construct: determined in kinobeads assays with mass spectrometry detection of kinases as described previously; endogenous in cells; host or cells: cell lysate
Description: as §1

[5] = biological target: T5, kinases (kinome) (Homo sapiens, UniProt P48729); details: CK1a (CK1), IPI00448798
T5 construct: determined in kinobeads assays with mass spectrometry detection of kinases as described previously; endogenous in cells; host or cells: cell lysate
Description: as §1

[6] = biological target: T6, kinases (kinome) (Homo sapiens, UniProt P50613); details: CDK7 (CMGC), IPI00000685
T6 construct: determined in kinobeads assays with mass spectrometry detection of kinases as described previously; endogenous in cells; host or cells: cell lysate
T6 sequence (P50613 whole entry): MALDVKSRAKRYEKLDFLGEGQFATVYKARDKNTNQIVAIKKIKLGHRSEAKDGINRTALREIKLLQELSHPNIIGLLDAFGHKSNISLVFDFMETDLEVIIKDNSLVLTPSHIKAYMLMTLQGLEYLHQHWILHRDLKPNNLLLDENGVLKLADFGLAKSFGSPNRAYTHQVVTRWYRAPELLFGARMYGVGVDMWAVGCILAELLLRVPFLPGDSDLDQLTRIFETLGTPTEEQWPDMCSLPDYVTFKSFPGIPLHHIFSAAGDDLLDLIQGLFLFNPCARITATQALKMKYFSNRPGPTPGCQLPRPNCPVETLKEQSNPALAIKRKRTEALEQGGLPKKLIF
Description: as §1

[7] = biological target: T7, kinases (kinome) (Homo sapiens, UniProt P50750); details: CDK9 (CMGC), IPI00552413
T7 construct: determined in kinobeads assays with mass spectrometry detection of kinases as described previously; endogenous in cells; host or cells: cell lysate
Description: as §1

[8] = biological target: T8, kinases (kinome) (Homo sapiens, UniProt P51955); details: NEK2 (Other), IPI00021331
T8 construct: determined in kinobeads assays with mass spectrometry detection of kinases as described previously; endogenous in cells; host or cells: cell lysate
T8 sequence (P51955 1-445): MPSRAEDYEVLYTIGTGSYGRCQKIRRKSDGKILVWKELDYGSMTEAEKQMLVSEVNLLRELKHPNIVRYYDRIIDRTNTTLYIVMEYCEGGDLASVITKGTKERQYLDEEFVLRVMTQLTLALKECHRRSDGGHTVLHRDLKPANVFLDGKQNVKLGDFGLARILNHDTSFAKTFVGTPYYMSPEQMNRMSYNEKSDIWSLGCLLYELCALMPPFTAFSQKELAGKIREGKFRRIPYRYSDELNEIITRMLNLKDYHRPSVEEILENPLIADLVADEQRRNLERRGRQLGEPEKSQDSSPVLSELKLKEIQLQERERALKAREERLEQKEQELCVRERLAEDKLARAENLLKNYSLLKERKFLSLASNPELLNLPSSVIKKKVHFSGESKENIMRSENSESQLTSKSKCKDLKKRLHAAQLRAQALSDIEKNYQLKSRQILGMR
Description: as §1

[9] = biological target: T9, kinases (kinome) (Homo sapiens, UniProt P53667); details: LIMK1 (TKL), IPI00291702
T9 construct: determined in kinobeads assays with mass spectrometry detection of kinases as described previously; endogenous in cells; host or cells: cell lysate
Description: as §1

[10] = biological target: T10, kinases (kinome) (Homo sapiens, UniProt Q00534); details: CDK6 (CMGC), IPI00023529
T10 construct: determined in kinobeads assays with mass spectrometry detection of kinases as described previously; endogenous in cells; host or cells: cell lysate
Description: as §1

[11] = biological target: T11, kinases (kinome) (Homo sapiens, UniProt Q00535); details: CDK5 (CMGC), IPI00023530
T11 construct: determined in kinobeads assays with mass spectrometry detection of kinases as described previously; endogenous in cells; host or cells: cell lysate
Description: as §1

[12] = biological target: T12, kinases (kinome) (Homo sapiens, UniProt Q04771); details: ALK2 (TKL), IPI00029219
T12 construct: determined in kinobeads assays with mass spectrometry detection of kinases as described previously; endogenous in cells; host or cells: cell lysate
T12 sequence (Q04771 21-509): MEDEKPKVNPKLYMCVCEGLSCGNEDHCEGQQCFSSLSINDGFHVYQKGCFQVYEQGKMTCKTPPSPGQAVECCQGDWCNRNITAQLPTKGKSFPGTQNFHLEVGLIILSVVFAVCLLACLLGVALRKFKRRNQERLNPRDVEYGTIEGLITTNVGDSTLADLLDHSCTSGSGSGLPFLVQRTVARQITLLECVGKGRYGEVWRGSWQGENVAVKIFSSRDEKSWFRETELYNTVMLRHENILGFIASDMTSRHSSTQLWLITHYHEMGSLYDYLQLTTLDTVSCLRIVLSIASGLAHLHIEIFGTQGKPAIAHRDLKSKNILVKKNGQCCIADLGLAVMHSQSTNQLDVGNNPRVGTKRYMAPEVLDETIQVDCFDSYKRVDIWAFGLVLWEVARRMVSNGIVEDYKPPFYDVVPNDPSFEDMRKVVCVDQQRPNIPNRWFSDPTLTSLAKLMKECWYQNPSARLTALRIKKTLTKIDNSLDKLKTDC
Description: as §1

[13] = biological target: T13, kinases (kinome) (Homo sapiens, UniProt Q07912); details: ACK (TK), IPI00552750
T13 construct: determined in kinobeads assays with mass spectrometry detection of kinases as described previously; endogenous in cells; host or cells: cell lysate
T13 sequence (Q07912 whole entry): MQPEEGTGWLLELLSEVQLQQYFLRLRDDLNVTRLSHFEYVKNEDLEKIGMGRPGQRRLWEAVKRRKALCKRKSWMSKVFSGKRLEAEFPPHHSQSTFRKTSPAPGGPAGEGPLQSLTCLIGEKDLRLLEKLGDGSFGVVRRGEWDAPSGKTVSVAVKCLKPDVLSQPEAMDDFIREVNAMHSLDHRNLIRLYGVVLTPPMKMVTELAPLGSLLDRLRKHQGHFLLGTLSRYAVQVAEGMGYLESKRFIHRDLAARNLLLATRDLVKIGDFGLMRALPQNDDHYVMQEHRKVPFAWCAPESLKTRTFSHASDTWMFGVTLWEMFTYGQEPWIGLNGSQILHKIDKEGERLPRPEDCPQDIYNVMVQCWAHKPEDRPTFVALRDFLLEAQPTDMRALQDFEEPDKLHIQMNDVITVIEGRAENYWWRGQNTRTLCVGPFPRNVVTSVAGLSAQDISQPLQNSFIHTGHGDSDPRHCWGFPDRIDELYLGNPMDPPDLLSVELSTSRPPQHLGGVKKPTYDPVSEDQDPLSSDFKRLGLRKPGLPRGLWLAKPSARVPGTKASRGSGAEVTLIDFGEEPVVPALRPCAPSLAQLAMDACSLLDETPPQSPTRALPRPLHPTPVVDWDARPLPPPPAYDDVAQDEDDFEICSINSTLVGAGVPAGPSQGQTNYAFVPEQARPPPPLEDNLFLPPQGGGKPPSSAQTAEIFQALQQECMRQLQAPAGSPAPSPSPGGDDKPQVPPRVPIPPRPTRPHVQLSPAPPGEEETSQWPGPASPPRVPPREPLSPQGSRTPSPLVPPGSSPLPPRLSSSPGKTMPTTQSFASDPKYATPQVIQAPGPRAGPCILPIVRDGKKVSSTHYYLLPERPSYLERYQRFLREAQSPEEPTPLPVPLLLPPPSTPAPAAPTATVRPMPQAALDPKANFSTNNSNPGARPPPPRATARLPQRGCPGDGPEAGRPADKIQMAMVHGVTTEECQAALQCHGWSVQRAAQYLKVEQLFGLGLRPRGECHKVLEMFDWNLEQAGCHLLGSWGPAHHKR
Description: as §1

[14] = biological target: T14, kinases (kinome) (Homo sapiens, UniProt Q13163); details: MAP2K5 (STE), IPI00158248
T14 construct: determined in kinobeads assays with mass spectrometry detection of kinases as described previously; endogenous in cells; host or cells: cell lysate
T14 sequence (Q13163 1-448): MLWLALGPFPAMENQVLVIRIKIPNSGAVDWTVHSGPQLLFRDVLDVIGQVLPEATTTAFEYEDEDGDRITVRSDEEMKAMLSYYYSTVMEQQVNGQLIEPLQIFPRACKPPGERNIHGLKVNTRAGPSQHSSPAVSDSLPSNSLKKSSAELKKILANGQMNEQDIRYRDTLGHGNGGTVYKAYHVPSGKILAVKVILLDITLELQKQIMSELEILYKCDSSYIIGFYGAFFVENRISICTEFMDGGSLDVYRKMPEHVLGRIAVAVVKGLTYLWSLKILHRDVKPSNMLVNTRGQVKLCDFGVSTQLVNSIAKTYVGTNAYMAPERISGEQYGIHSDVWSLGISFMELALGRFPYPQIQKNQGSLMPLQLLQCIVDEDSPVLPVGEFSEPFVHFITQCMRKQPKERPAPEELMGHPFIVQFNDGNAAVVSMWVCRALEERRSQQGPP
Description: as §1

[15] = biological target: T15, kinases (kinome) (Homo sapiens, UniProt Q13315); details: ATM (Atypical), IPI00298306
T15 construct: determined in kinobeads assays with mass spectrometry detection of kinases as described previously; endogenous in cells; host or cells: cell lysate
T15 sequence (Q13315 whole entry): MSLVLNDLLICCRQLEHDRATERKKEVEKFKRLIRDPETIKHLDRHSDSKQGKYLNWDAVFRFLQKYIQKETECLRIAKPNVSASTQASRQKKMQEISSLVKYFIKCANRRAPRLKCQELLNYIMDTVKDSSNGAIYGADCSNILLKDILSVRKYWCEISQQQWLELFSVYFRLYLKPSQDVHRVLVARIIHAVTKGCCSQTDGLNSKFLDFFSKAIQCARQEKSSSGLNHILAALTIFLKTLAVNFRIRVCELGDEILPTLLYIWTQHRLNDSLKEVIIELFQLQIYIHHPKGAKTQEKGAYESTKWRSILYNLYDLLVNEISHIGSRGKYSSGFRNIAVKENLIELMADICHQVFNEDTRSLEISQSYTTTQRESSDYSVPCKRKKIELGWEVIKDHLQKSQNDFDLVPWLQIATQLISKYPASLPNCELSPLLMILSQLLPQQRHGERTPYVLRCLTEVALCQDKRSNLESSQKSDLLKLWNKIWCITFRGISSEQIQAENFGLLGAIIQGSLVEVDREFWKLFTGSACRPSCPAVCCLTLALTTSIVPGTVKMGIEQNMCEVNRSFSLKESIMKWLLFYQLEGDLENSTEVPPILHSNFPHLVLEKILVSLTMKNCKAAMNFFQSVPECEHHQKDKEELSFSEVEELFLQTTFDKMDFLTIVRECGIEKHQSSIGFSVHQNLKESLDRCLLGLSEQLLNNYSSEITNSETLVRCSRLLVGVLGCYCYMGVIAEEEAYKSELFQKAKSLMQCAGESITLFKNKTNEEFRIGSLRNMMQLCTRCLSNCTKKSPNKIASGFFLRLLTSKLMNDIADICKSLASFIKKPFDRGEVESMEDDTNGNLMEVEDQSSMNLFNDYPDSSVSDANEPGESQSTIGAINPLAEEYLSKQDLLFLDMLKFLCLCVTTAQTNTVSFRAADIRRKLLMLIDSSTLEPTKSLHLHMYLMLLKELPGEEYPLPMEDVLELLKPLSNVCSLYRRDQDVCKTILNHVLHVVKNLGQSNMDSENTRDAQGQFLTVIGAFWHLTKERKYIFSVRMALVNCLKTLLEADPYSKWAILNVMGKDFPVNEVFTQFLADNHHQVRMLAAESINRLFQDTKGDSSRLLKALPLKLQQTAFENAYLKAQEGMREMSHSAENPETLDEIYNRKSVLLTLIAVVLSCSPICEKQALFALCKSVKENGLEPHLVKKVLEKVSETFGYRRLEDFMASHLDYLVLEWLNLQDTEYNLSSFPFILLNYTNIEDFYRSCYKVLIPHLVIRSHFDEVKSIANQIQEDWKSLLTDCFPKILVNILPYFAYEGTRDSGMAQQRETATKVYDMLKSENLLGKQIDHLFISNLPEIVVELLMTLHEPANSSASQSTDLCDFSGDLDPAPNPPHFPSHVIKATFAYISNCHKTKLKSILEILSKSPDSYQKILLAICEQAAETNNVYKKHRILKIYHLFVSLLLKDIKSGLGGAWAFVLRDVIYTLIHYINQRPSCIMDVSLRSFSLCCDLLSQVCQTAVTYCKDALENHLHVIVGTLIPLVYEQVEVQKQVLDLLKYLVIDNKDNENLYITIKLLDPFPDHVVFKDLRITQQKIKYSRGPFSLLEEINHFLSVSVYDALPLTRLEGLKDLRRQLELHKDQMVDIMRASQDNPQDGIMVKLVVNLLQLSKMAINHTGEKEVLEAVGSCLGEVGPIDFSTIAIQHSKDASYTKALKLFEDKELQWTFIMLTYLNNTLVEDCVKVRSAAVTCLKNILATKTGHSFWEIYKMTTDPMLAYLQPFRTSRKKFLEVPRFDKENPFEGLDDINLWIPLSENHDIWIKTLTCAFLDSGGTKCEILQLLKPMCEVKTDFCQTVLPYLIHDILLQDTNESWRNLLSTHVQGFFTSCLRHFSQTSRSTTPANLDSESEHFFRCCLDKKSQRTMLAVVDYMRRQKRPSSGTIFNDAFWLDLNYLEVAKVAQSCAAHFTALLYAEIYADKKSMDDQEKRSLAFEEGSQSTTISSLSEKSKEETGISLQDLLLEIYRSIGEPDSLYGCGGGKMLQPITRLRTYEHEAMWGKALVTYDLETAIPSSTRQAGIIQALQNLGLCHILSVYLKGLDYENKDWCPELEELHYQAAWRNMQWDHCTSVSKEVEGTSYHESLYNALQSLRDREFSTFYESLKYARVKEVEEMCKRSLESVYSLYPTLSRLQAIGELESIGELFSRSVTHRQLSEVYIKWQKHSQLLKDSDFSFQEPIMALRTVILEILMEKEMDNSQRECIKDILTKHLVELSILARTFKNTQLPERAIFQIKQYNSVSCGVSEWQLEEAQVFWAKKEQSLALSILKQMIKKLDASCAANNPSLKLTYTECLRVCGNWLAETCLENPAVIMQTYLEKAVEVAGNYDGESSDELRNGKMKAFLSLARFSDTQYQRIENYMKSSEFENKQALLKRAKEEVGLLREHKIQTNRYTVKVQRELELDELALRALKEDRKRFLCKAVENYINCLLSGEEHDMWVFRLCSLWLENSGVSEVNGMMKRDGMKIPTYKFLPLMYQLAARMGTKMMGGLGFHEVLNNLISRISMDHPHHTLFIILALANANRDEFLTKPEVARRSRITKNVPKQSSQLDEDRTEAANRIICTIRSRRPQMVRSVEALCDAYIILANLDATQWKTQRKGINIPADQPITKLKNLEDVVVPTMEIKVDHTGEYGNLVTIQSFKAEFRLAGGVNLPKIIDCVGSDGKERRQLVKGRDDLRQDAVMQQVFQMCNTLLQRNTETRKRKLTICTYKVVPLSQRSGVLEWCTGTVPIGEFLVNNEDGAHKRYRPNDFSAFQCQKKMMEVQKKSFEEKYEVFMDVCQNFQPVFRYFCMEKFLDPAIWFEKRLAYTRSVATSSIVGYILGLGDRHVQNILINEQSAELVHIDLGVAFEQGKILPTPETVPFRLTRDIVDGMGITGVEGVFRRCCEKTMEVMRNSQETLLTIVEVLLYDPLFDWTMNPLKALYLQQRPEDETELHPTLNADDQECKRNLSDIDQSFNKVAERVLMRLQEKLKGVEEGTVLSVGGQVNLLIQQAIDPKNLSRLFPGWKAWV
Description: as §1

[16] = biological target: T16, kinases (kinome) (Homo sapiens, UniProt Q15569); details: TESK1 (TKL), IPI00018182
T16 construct: determined in kinobeads assays with mass spectrometry detection of kinases as described previously; endogenous in cells; host or cells: cell lysate
T16 sequence (Q15569 whole entry): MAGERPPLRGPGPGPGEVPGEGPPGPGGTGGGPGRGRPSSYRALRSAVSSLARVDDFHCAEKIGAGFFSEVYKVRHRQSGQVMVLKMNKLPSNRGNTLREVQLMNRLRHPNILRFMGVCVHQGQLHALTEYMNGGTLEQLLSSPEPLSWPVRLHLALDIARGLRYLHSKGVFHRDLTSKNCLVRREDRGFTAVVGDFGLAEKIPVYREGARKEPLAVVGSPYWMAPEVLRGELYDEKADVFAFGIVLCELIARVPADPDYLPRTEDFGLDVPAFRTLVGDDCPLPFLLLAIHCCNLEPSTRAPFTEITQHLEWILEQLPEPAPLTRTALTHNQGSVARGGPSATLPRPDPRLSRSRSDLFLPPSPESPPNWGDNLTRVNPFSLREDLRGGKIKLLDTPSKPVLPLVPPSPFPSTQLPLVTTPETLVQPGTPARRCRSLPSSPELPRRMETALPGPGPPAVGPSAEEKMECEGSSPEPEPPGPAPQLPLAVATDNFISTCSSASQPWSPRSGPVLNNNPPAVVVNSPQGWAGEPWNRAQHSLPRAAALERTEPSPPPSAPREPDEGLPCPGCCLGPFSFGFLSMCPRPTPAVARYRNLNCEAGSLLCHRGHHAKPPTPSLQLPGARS
Description: as §1

[17] = biological target: T17, kinases (kinome) (Homo sapiens, UniProt Q9Y4K4); details: KHS1 (STE), IPI00294842
T17 construct: determined in kinobeads assays with mass spectrometry detection of kinases as described previously; endogenous in cells; host or cells: cell lysate
Description: as §1

| IC50 [1] [µM] | IC50 [2] [µM] | IC50 [3] [µM] | IC50 [4] [µM] | IC50 [5] [µM] | IC50 [6] [µM] | IC50 [7] [µM] | IC50 [8] [µM] | IC50 [9] [µM] | IC50 [10] [µM] | IC50 [11] [µM] | IC50 [12] [µM] | IC50 [13] [µM] | IC50 [14] [µM] | IC50 [15] [µM] | IC50 [16] [µM] | IC50 [17] [µM] | SMILES |
| --- | --- | --- | --- | --- | --- | --- | --- | --- | --- | --- | --- | --- | --- | --- | --- | --- | --- |
| > 10 | > 10 | > 10 | > 10 | > 10 | > 10 | > 10 | > 10 | > 10 | > 10 | > 10 | > 10 | > 10 | > 10 | > 10 | > 10 | > 10 | C[C@H]1COCCN1c1nc(-c2ccc(NC(=O)NC3CC3)cc2)cc(-c2cccnc2S(C)(=O)=O)n1 [Example 46, (S)-1-cyclopropyl-3-(4-(2-(3-methylmorpholino)-6-(2-(methylsulfonyl)pyridin-3-yl)pyrimidin-4-yl)phenyl)urea] |
| > 10 | > 10 | > 10 | > 10 | > 10 | > 10 | > 10 | > 10 | > 10 | > 10 | > 10 | > 10 | > 10 | > 10 | > 10 | > 10 | > 10 | C[C@H]1COCCN1c1nc(-c2ccc(NC(=O)NC3CC3)cc2)cc(-c2ccccc2S(C)(=O)=O)n1 [Example 4, (S)-1-cyclopropyl-3-(4-(2-(3-methylmorpholino)-6-(2-(methylsulfonyl)phenyl)pyrimidin-4-yl)phenyl)urea] |
| > 10 | > 10 | > 10 | > 10 | > 10 | > 10 | > 10 | > 10 | > 10 | > 10 | > 10 | > 10 | > 10 | > 10 | > 10 | > 10 | > 10 | C[C@H]1COCCN1c1nc(-c2ccc(NC(=O)NC3CC3)cc2)cc(-c2cc(F)ccc2S(C)(=O)=O)n1 [Example 40, (S)-1-cyclopropyl-3-(4-(6-(5-fluoro-2-(methylsulfonyl)phenyl)-2-(3-methylmorpholino)pyrimidin-4-yl)phenyl)urea] |
| > 10 | > 10 | > 10 | > 10 | > 10 | > 10 | > 10 | > 10 | > 10 | > 10 | > 10 | > 10 | > 10 | > 10 | > 10 |  | > 10 | C[C@H]1COCCN1c1nc(-c2ccc(NC(=O)N[C@H]3CCC[C@@H]3O)cc2)cc(-c2cc(F)ccc2S(C)(=O)=O)n1 [Example 76, 1-(4-(6-(5-fluoro-2-(methylsulfonyl)phenyl)-2-((S)-3-methylmorpholino)pyrimidin-4-yl)phenyl)-3-((1S,2S)-2-hydroxycyclopentyl)urea] |
| > 10 | > 10 | > 10 | > 10 | > 10 | > 10 | > 10 | > 10 | > 10 | > 10 | > 10 | > 10 | > 10 | > 10 | > 10 | > 10 | > 10 | C[C@H]1COCCN1c1cc(-c2ccccn2)nc(-c2ccc(NC(=O)NCCO)cc2)n1 [Example 43, (S)-1-(2-hydroxyethyl)-3-(4-(4-(3-methylmorpholino)-6-(pyridin-2-yl)pyrimidin-2-yl)phenyl)urea] |
| > 10 | > 10 | > 10 | > 10 | > 10 | > 10 | > 10 | > 10 | > 10 | > 10 | > 10 | > 10 | > 10 | > 10 | > 10 | > 10 | > 10 | C[C@H]1COCCN1c1cc(-c2ccccc2S(C)(=O)=O)nc(-c2ccc(NC(=O)NC3CC3)cc2)n1 [Example 6, (S)-1-cyclopropyl-3-(4-(4-(3-methylmorpholino)-6-(2-(methylsulfonyl)phenyl)pyrimidin-2-yl)phenyl)urea] |
| > 10 | > 10 | > 10 | > 10 | > 10 | > 10 | > 10 | > 10 | > 10 |  | > 10 | > 10 | > 10 | > 10 | > 10 | > 10 | > 10 | CCNC(=O)Nc1ccc(-c2cc(-c3ccccc3C#N)nc(N3CCOC[C@@H]3C)n2)cc1 [Example 8, (S)-1-(4-(6-(2-cyanophenyl)-2-(3-methylmorpholino)pyrimidin-4-yl)phenyl)-3-ethylurea] |
